# Experimental data: patent US20250325485A1, “STABLE COMPOSITIONS OF FOXY-5 HEXAPEPTIDE WITH HIGH SOLUBILITY” (WNTRESEARCH AB, priority 2021, published 2025)
# Read-outs that look alike come from different tables or passages of the source. Peptide text beside a SMILES is read from it. * marks the point of attachment. For = O=C*
# Columns and labels:
# [1] = Stability study at 40° C. for two and four weeks (HPLC purity, appearance); assay type: physicochemical; conditions: closed containers
# Procedure: A stability study of the compositions according to the first aspect (and the previously prepared trisodium salt) at 40° C. for two and four weeks was performed. Some general trends were found. […] The purity of the tri-salts varied more than the purity of the di-salts (HPLC purity 78-95% at 4 weeks for the tri-salts vs. 87-96% at 4 weeks for the di-salts). Furthermore, as appears from FIG. 6, the absolute purity of the compositions comprising amino acids was generally higher after 4 weeks at 40° C. when compared with compositions comprising other salt formers (value at 4 weeks: ˜90% vs. ˜85% for tri-salts and ˜95% vs. ˜90% for di-salts).
# The stability test data for all formed compositions and the starting material itself (Foxy-5 free acid) were measured at 0, 2 and 4 weeks storage @40° C. and included in FIG. 10.
# The following parameters for the substance-specific UPLC method were employed for the purity measurements of the stability samples: […]
# [2] = cited from earlier work
# [3] = pKa by potentiometric titration (Sirius T3); assay type: physicochemical; conditions: ISA water, 25° C., read-out: pKa [measured]
# Procedure: 2.0.0.0 software. An automated aqueous titration method was used with initial values of 1.0 mg of solid API dissolved in 1.5 mL of ISA water and three sequential titrations on the same sample. In all three titrations, the sample solution was adjusted with 0.5 M KOH to a starting pH of 12 and slowly titrated with 0.5 M HCl to a final pH of 2.
# Each titration curve was fit using the SiriusT3Refine Vers. 2.0.0.0 software, and the corresponding pKa values were calculated. […]
# [4] = Solubility / lyophilization concentration of Foxy-5 drug substance (background statements); assay type: physicochemical; conditions: for solubility: water
# From the text: The current manufacturing process of Foxy-5 applies a product concentration for the final lyophilization of only 3 g/L due to the limited solubility of the salt free drug substance (DS) in water. This presents a bottleneck which severely limits the production throughput for the commercial manufacture of Foxy-5.
# While this achievement is impressive, it nonetheless remains problematic to produce Foxy-5 on commercial scale when the final step requires such a high dilution.
# Consequently, an increase of batch size by other solubilizing techniques than solvent polarity adjustments was proposed.
# [5] = High pH treatment of aqueous Foxy-5 solution tracked by HPLC; assay type: physicochemical; conditions: after 2 hours at pH=9
# Procedure: After stirring of the Foxy-5 solution for 2 hours at pH 9 (see FIG. 4), the aspartimide peak in the HPLC chromatogram completely disappeared (<LOD). It is known that ring opening of aspartimides occurs at high pH, leading to the formation of either the parent compound and the […] and the D-Asp derivatives. However, significant dimer formation was observed (2.5% after 2 hours at pH=9). The identification of the dimer in the chromatogram was confirmed by co-elution with separately synthesized reference material.
smiles,measurement,setting,value
CSCC[C@H](NC=O)C(=O)N[C@@H](CC(=O)O)C(=O)NCC(=O)N[C@@H](CS)C(=O)N[C@@H](CCC(=O)O)C(=O)N[C@@H](CC(C)C)C(=O)O [NMG-P6] (For-MDGCEL-OH),appearance after storage,[1]; 2 weeks at 40° C.,"sticky, glassy appearance"
CSCC[C@H](NC=O)C(=O)N[C@@H](CC(=O)O)C(=O)NCC(=O)N[C@@H](CS)C(=O)N[C@@H](CCC(=O)O)C(=O)N[C@@H](CC(C)C)C(=O)O [DEA-P1] (For-MDGCEL-OH),appearance after storage,[1]; 2 and 4 weeks at 40° C.,glassy appearance
NC(CO)(CO)CO [tromethamine],pKa of the salt-forming base,[2],8.0
"CSCC[C@H](NC=O)C(=O)N[C@@H](CC(=O)O)C(=O)NCC(=O)N[C@@H](CS)C(=O)N[C@@H](CCC(=O)O)C(=O)N[C@@H](CC(C)C)C(=O)O [Foxy-5, For-Met-Asp-Gly-Cys-Glu-Leu-OH] (For-MDGCEL-OH)",pKa,[3]; ASP carboxylic (acidic),3.98
same,pKa,[3]; CYS thiol (acidic),9.01
same,pKa,[3]; GLU carboxylic (acidic),4.79
same,pKa,[3]; terminal carboxylic (acidic),3.39
same,DS concentration applicable in alternative lyophilization process,[4]; aqueous 30% acetonitrile solution as solvent,up to 7 g/L
same,aqueous solubility,"[4]; free Foxy-5 hexapeptide, for comparison, listed as free Foxy-5 peptide",3 mg/mL
same,solubility,"[4]; free Foxy-5 hexapeptide, for comparison, read-out: aqueous solubility",~3000 µg/mL
same,solubility,"[4]; read-out: product concentration for the final lyophilization, limited by solubility of salt free drug substance in water",3000 µg/mL
same,dimer formation,[5],2.5%
